Measurements published in ChEMBL document CHEMBL1201862, “PubChem BioAssay data set” (2004).
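Results reflect a 48-hour exposure of cells in 96-well plates to compound at five concentrations. Abbreviation: GI50, concentration required for 50% inhibition of growth.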 Activity calls are given as the source filed them. Rule as the data show it: active = GI50 up to about 1.1 µM and inactive = higher. Residues, ends and D or L forms follow the SMILES beside them. Groups on a side chain read outwards from the residue. *: point of attachment. Cbz = O=C(OCc1ccccc1)*; Boc = CC(C)(C)OC(=O)*

Assays:
Experiment in all cases: NCI-60 cell line screen, 48 h
[1] = system: A498
[2] = system: OVCAR-8
[3] = system: SK-MEL-2
[4] = system: LOX IMVI
[5] = system: MDA-N
[6] = system: TK-10
[7] = system: HL-60
[8] = system: MCF7
[9] = system: Malme-3M
[10] = system: HCT-15
[11] = system: OVCAR-3
[12] = system: UACC-257
[13] = system: NCI-H460
[14] = system: HCC 2998
[15] = system: M14
[16] = system: OVCAR-5
[17] = system: NCI-H23
[18] = system: RPMI-8226
[19] = system: NCI-H226
[20] = system: RXF 393

| Compound | GI50 [1] | GI50 [2] | GI50 [3] | GI50 [4] | GI50 [5] | GI50 [6] | GI50 [7] | GI50 [8] | GI50 [9] | GI50 [10] [µM] | GI50 [11] | GI50 [12] | GI50 [13] | GI50 [14] | GI50 [15] | GI50 [16] | GI50 [17] | GI50 [18] | GI50 [19] | GI50 [20] |
| --- | --- | --- | --- | --- | --- | --- | --- | --- | --- | --- | --- | --- | --- | --- | --- | --- | --- | --- | --- | --- |
| Cc1c(-c2ccccc2)n(C)c2cn[nH]c(=O)c12 | 30.4 µM (inactive) | 39.2 µM (inactive) | 22.7 µM (inactive) | 18.7 µM (inactive) | 33.5 µM (inactive) | 41.4 µM (inactive) | 36.5 µM (inactive) | 31.5 µM (inactive) | 42.6 µM (inactive) | 36.6 | 19.7 µM (inactive) | 45.5 µM (inactive) | 63.8 µM (inactive) | 27.8 µM (inactive) | 42.5 µM (inactive) | 52.2 µM (inactive) | 38.4 µM (inactive) | 38.1 µM (inactive) |  |  |
| CO[C@@H](c1ccccc1)[C@H](O)[C@@](O)(c1ccccc1)P(=O)(OC)OC | > 100 µM (inactive) | > 100 µM (inactive) | > 100 µM (inactive) | > 100 µM (inactive) | > 100 µM (inactive) | > 100 µM (inactive) | > 100 µM (inactive) | > 100 µM (inactive) | 36.6 µM (inactive) | > 100 | > 100 µM (inactive) | > 100 µM (inactive) | > 100 µM (inactive) |  | > 100 µM (inactive) | > 100 µM (inactive) | > 100 µM (inactive) | > 100 µM (inactive) | > 100 µM (inactive) | > 100 µM (inactive) |
| Cc1cc(C)n(-c2nc3ccccc3c(=O)[nH]2)n1 | 23.2 µM (inactive) | 0.863 µM (active) | 8.47 µM (inactive) | 1.41 µM (inactive) | 32.6 µM (inactive) | > 50.8 µM (inactive) | 1.32 µM (inactive) | 3.78 µM (inactive) |  | 2.11 | 4.11 µM (inactive) | 33.6 µM (inactive) | 1.21 µM (inactive) | 14.8 µM (inactive) | 3.75 µM (inactive) | > 77.3 µM (inactive) | 7.96 µM (inactive) | 3.92 µM (inactive) |  |  |
| N#CC(=N)c1ncn(-c2ccc(N)cc2)c1N | > 100 µM (inactive) | > 100 µM (inactive) | > 100 µM (inactive) | > 100 µM (inactive) | > 100 µM (inactive) | > 100 µM (inactive) | > 100 µM (inactive) | > 100 µM (inactive) | > 100 µM (inactive) | > 100 | > 100 µM (inactive) | > 100 µM (inactive) | > 100 µM (inactive) | > 100 µM (inactive) | > 100 µM (inactive) | > 100 µM (inactive) | > 100 µM (inactive) | > 100 µM (inactive) | > 100 µM (inactive) |  |
| Cc1cc(C)c(S(=O)(=O)N2CCCN(S(=O)(=O)c3c(C)cc(C)cc3C)OCCCON(S(=O)(=O)c3c(C)cc(C)cc3C)CCCN(S(=O)(=O)c3c(C)cc(C)cc3C)OCCCO2)c(C)c1 |  | > 100 µM (inactive) | > 100 µM (inactive) | > 100 µM (inactive) | > 100 µM (inactive) | > 100 µM (inactive) | 46.6 µM (inactive) | > 100 µM (inactive) | > 100 µM (inactive) | > 100 | > 100 µM (inactive) | > 100 µM (inactive) | > 100 µM (inactive) | > 100 µM (inactive) | > 100 µM (inactive) | > 100 µM (inactive) | > 100 µM (inactive) | 67.3 µM (inactive) | > 100 µM (inactive) | 61.1 µM (inactive) |
| COC(=O)c1cc(-c2c[nH]cc2C(=O)OCc2ccccc2)cn1S(=O)(=O)c1ccc(C)cc1 | > 100 µM (inactive) | > 100 µM (inactive) | > 100 µM (inactive) | 22.4 µM (inactive) | > 100 µM (inactive) | > 100 µM (inactive) |  | 22.3 µM (inactive) | > 100 µM (inactive) | > 100 | > 100 µM (inactive) | 7.93 µM (inactive) | 57.3 µM (inactive) | > 100 µM (inactive) | > 100 µM (inactive) | > 100 µM (inactive) | 6.61 µM (inactive) |  |  | > 100 µM (inactive) |
| CC(C)CC(NC(=O)OCc1ccccc1)C(=O)NCCCCC(NC(=O)C(CCCCNC(=O)C(CC(C)C)NC(=O)OCc1ccccc1)NC(=O)C(CCCCNC(=O)C(CC(C)C)NC(=O)OCc1ccccc1)NC(=O)C(CCCCNC(=O)C(CC(C)C)NC(=O)OCc1ccccc1)NC(=O)OC(C)(C)C)C(=O)O (stereo not drawn) (Boc-K([Leu-Cbz])K([Leu-Cbz])K([Leu-Cbz])K([Leu-Cbz])-OH; configuration not given here) | > 25 µM (inactive) | > 25 µM (inactive) | > 25 µM (inactive) | > 25 µM (inactive) | > 25 µM (inactive) | > 25 µM (inactive) | > 25 µM (inactive) | > 25 µM (inactive) | > 25 µM (inactive) | > 25 | > 25 µM (inactive) | > 25 µM (inactive) | > 25 µM (inactive) | > 25 µM (inactive) | > 25 µM (inactive) | > 25 µM (inactive) | > 25 µM (inactive) | > 25 µM (inactive) | > 25 µM (inactive) |  |
